Measurements as given in ChEMBL document CHEMBL4800729 (2021).

Experiments:
[1] = biological target: Mitogen-activated protein kinase kinase kinase 5 (Homo sapiens) (UniProt Q99683); test: ASK1(h) Millipore kinase panel; conditions: Compound concentration 1.0 uM
[2] = biological target: Mitogen-activated protein kinase 14 (Homo sapiens) (UniProt Q16539); test: SAPK2a(h) Millipore kinase panel; conditions: Compound concentration 1.0 uM
[3] = biological target: Cannabinoid receptor 2 (Homo sapiens) (UniProt P34972); conditions: Compound concentration 10.0 uM
[4] = biological target: Eukaryotic translation initiation factor 2-alpha kinase 1 (Homo sapiens) (UniProt Q9BQI3); test: HRI(h) Millipore kinase panel; conditions: Compound concentration 1.0 uM
[5] = biological target: Mitogen-activated protein kinase 1 (Homo sapiens) (UniProt P28482); test: MAPK2(h) Millipore kinase panel; conditions: Compound concentration 1.0 uM
[6] = biological target: Wee1-like protein kinase (Homo sapiens) (UniProt P30291); test: WEE1(h) Millipore kinase panel; conditions: Compound concentration 1.0 uM
[7] = biological target: Glycogen synthase kinase-3 beta (Homo sapiens) (UniProt P49841); test: GSK3beta(h) Millipore kinase panel; conditions: Compound concentration 1.0 uM
[8] = biological target: RAC-gamma serine/threonine-protein kinase (Homo sapiens) (UniProt Q9Y243); test: PKBgamma(h) Millipore kinase panel; conditions: Compound concentration 1.0 uM
[9] = biological target: 5-hydroxytryptamine receptor 2A (Homo sapiens) (UniProt P28223); conditions: Compound concentration 10.0 uM
[10] = biological target: MAP kinase-activated protein kinase 2 (Homo sapiens) (UniProt P49137); test: MAPKAP-K2(h) Millipore kinase panel; conditions: Compound concentration 1.0 uM
[11] = biological target: Serine-protein kinase ATM (Homo sapiens) (UniProt Q13315); test: ATM(h) Millipore kinase panel; conditions: Compound concentration 1.0 uM
[12] = biological target: Activated CDC42 kinase 1 (Homo sapiens) (UniProt Q07912); test: ACK1(h) Millipore kinase panel; conditions: Compound concentration 1.0 uM
[13] = biological target: 5-hydroxytryptamine receptor 7 (Homo sapiens, UniProt P34969); test: GPCRScan assay: inhibition of 5-HT7A; parameters: radioligand conc. used [nm] 5.0 – 6.0, parental cells Stable HEK
[14] = biological target: BMP-2-inducible protein kinase (Homo sapiens) (UniProt Q9NSY1); test: BIKe(h) Millipore kinase panel; conditions: Compound concentration 1.0 uM
[15] = biological target: Protein kinase C iota type (Homo sapiens) (UniProt P41743); test: PKCiota(h) Millipore kinase panel; conditions: Compound concentration 1.0 uM
[16] = biological target: cGMP-dependent protein kinase 1 (Homo sapiens) (UniProt Q13976); test: PKG1alpha(h) Millipore kinase panel; conditions: Compound concentration 1.0 uM
[17] = biological target: Calcium/calmodulin-dependent protein kinase type II subunit beta (Homo sapiens) (UniProt Q13554); test: CaMKIIbeta(h) Millipore kinase panel; conditions: Compound concentration 1.0 uM
[18] = biological target: Activin receptor type-1-like (Homo sapiens) (UniProt P37023); test: ALK1(h) Millipore kinase panel; conditions: Compound concentration 1.0 uM
[19] = biological target: Ephrin type-A receptor 1 (Homo sapiens) (UniProt P21709); test: EphA1(h) Millipore kinase panel; conditions: Compound concentration 1.0 uM
[20] = biological target: Muscarinic acetylcholine receptor M3 (Homo sapiens) (UniProt P20309); conditions: Compound concentration 10.0 uM
[21] = biological target: Testis-specific serine/threonine-protein kinase 4 (Homo sapiens) (UniProt Q6SA08); test: TSSK4(h) Millipore kinase panel; conditions: Compound concentration 1.0 uM
[22] = biological target: Serine/threonine-protein kinase TAO1 (Homo sapiens) (UniProt Q7L7X3); test: TAO1(h) Millipore kinase panel; conditions: Compound concentration 1.0 uM
[23] = biological target: Serine/threonine-protein kinase ULK2 (Homo sapiens) (UniProt Q8IYT8); test: ULK2(h) Millipore kinase panel; conditions: Compound concentration 1.0 uM
[24] = biological target: Ephrin type-A receptor 3 (Homo sapiens) (UniProt P29320); test: EphA3(h) Millipore kinase panel; conditions: Compound concentration 1.0 uM
[25] = biological target: Glutamate receptor ionotropic, kainate (Rattus norvegicus) (UniProt P22756+Q01812+P42260+P42264+Q63273); conditions: Compound concentration 10.0 uM
[26] = biological target: Dual specificity mitogen-activated protein kinase kinase 2 (Homo sapiens) (UniProt P36507); test: MEK2(h) Millipore kinase panel; conditions: Compound concentration 1.0 uM
[27] = biological target: CDK17/Cyclin-Y (Homo sapiens) (UniProt Q00537+Q8ND76); test: CDK17/cyclinY(h) Millipore kinase panel; type: protein-complex assay; conditions: Compound concentration 1.0 uM
[28] = biological target: STE20/SPS1-related proline-alanine-rich protein kinase (Homo sapiens) (UniProt Q9UEW8); test: STK39(h) Millipore kinase panel; conditions: Compound concentration 1.0 uM
[29] = biological target: Histamine H1 receptor (Homo sapiens) (UniProt P35367); conditions: Compound concentration 10.0 uM
[30] = biological target: Mitogen-activated protein kinase kinase kinase 3 (Homo sapiens) (UniProt Q99759); test: MEKK3(h) Millipore kinase panel; conditions: Compound concentration 1.0 uM
[31] = biological target: Dual specificity tyrosine-phosphorylation-regulated kinase 2 (Homo sapiens) (UniProt Q92630); test: DYRK2(h) Millipore kinase panel; conditions: Compound concentration 1.0 uM
[32] = biological target: Tyrosine-protein kinase TXK (Homo sapiens) (UniProt P42681); test: Txk(h) Millipore kinase panel; conditions: Compound concentration 1.0 uM
[33] = biological target: Serine/threonine-protein kinase 24 (Homo sapiens) (UniProt Q9Y6E0); test: MST3(h) Millipore kinase panel; conditions: Compound concentration 1.0 uM
[34] = biological target: Tribbles homolog 2 (Homo sapiens) (UniProt Q92519); test: TRB2(h) Millipore kinase panel; conditions: Compound concentration 1.0 uM
[35] = biological target: Sigma non-opioid intracellular receptor 1 (Homo sapiens) (UniProt Q99720); conditions: Compound concentration 10.0 uM
[36] = biological target: Tyrosine-protein kinase CSK (Homo sapiens) (UniProt P41240); test: CSK(h) Millipore kinase panel; conditions: Compound concentration 1.0 uM
[37] = biological target: Ephrin type-B receptor 3 (Homo sapiens) (UniProt P54753); test: EphB3(h) Millipore kinase panel; conditions: Compound concentration 1.0 uM
[38] = biological target: Calcium/calmodulin-dependent protein kinase kinase 2 (Homo sapiens) (UniProt Q96RR4); test: CaMKK2(h) Millipore kinase panel; conditions: Compound concentration 1.0 uM
[39] = biological target: Sodium-dependent dopamine transporter (Homo sapiens) (UniProt Q01959); conditions: Compound concentration 10.0 uM
[40] = biological target: Dual specificity mitogen-activated protein kinase kinase 3 (Homo sapiens) (UniProt P46734); test: MKK3(h) Millipore kinase panel; conditions: Compound concentration 1.0 uM
[41] = biological target: Serine/threonine-protein kinase LATS1 (Homo sapiens) (UniProt O95835); test: LATS1(h) Millipore kinase panel; conditions: Compound concentration 1.0 uM
[42] = biological target: Muscarinic acetylcholine receptor M4 (Homo sapiens) (UniProt P08173); conditions: Compound concentration 10.0 uM
[43] = biological target: Serine/threonine-protein kinase WNK2 (Homo sapiens) (UniProt Q9Y3S1); test: WNK2(h) Millipore kinase panel; conditions: Compound concentration 1.0 uM
[44] = biological target: Myosin-IIIb (Homo sapiens) (UniProt Q8WXR4); test: MYO3B(h) Millipore kinase panel; conditions: Compound concentration 1.0 uM
[45] = biological target: Interferon-induced, double-stranded RNA-activated protein kinase (Homo sapiens) (UniProt P19525); test: PKR(h) Millipore kinase panel; conditions: Compound concentration 1.0 uM

5-hydroxytryptamine receptor 7, sequence (P34969 whole entry): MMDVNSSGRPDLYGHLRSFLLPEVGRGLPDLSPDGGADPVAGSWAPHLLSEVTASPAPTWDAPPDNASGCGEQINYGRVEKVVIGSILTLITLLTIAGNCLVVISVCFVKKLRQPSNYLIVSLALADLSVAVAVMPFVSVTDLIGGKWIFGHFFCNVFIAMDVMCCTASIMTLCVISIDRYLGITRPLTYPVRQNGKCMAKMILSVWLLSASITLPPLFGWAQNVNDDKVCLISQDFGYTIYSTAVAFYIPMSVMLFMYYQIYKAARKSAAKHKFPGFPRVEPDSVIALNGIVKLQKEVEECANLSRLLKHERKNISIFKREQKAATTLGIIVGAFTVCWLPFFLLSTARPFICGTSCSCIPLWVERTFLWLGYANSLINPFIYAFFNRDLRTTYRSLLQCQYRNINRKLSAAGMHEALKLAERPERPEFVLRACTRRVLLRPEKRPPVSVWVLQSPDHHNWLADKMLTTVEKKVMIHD
Tyrosine-protein kinase CSK (Homo sapiens), sequence (P41240 2-450 limits assumed): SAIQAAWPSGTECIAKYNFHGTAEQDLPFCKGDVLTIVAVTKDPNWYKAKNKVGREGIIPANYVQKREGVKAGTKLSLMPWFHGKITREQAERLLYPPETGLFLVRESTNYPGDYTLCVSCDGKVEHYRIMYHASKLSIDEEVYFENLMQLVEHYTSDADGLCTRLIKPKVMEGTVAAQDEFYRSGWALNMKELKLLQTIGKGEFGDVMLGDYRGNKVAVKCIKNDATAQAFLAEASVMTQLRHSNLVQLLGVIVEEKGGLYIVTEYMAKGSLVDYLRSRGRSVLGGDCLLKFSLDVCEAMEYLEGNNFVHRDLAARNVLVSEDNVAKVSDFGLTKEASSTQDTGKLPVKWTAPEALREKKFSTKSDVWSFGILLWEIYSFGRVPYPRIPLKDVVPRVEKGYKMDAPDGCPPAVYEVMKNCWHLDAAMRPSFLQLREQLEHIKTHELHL
Serine/threonine-protein kinase 24 (Homo sapiens), sequence (Q9Y6E0 whole entry, looked up): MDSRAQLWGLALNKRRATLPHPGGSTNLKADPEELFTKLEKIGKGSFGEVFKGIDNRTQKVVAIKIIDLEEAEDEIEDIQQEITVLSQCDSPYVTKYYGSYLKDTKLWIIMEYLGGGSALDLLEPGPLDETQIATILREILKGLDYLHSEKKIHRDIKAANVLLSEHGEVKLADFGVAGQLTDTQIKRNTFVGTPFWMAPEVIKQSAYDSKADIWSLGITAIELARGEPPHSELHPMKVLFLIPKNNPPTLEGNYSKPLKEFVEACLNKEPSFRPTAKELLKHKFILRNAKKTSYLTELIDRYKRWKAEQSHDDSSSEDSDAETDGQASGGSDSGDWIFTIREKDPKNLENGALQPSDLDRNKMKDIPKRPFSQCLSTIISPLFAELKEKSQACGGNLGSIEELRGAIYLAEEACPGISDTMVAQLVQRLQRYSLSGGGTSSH
Ephrin type-B receptor 3 (Homo sapiens), sequence (P54753 whole entry): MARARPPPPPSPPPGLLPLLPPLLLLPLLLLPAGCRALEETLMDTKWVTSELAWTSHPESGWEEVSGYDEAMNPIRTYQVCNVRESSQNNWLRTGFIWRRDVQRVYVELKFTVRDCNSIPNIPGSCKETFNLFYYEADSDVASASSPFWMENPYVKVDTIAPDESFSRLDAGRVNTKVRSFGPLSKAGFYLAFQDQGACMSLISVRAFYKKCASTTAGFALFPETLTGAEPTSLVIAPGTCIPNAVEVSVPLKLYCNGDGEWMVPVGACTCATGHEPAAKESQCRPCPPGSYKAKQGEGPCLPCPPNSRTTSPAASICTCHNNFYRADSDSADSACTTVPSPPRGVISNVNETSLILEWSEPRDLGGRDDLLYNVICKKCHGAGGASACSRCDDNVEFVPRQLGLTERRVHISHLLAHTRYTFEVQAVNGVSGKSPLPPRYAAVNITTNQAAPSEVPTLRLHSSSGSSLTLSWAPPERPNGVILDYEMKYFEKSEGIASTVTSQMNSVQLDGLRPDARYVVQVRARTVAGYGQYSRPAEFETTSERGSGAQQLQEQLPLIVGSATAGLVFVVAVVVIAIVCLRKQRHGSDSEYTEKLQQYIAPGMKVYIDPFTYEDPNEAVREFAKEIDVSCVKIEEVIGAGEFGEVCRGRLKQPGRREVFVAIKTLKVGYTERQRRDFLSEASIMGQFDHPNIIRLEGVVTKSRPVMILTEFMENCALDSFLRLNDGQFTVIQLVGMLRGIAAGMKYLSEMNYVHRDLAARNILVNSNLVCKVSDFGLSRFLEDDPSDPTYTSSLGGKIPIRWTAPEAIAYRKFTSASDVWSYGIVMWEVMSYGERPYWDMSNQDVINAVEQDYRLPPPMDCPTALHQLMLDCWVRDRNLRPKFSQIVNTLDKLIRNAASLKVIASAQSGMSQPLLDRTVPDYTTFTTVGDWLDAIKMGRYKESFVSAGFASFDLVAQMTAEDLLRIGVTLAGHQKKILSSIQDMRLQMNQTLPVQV
Sodium-dependent dopamine transporter (Homo sapiens), sequence (Q01959 whole entry): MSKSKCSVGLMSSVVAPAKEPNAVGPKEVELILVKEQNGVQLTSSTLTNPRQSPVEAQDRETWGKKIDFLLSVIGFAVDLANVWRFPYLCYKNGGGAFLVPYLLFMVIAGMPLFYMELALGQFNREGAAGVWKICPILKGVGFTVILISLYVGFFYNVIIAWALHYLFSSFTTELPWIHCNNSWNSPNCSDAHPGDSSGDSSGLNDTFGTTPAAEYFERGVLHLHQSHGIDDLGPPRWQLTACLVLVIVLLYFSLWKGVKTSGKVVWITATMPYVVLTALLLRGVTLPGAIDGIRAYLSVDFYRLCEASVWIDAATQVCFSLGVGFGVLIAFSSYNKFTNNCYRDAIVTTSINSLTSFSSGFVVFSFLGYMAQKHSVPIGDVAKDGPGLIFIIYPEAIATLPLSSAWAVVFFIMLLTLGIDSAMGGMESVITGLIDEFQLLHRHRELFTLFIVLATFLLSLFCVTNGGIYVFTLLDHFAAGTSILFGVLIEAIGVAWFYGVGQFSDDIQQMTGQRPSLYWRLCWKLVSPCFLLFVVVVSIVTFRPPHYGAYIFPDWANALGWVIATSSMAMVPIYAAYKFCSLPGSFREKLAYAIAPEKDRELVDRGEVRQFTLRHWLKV
Activin receptor type-1-like (Homo sapiens), sequence (P37023 whole entry): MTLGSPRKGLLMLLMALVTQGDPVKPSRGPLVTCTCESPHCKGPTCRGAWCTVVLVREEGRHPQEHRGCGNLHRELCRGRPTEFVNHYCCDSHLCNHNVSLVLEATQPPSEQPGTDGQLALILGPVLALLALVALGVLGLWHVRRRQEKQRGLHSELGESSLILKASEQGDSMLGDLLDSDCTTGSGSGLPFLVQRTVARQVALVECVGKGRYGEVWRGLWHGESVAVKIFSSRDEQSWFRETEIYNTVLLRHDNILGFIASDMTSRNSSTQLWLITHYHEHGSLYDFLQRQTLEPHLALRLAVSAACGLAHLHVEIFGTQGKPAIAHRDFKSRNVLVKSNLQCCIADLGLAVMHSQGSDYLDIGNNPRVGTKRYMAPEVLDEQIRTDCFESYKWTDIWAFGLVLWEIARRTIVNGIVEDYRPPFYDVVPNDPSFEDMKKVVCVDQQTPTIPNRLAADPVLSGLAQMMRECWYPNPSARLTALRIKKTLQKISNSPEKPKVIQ
Eukaryotic translation initiation factor 2-alpha kinase 1 (Homo sapiens), sequence (Q9BQI3 whole entry): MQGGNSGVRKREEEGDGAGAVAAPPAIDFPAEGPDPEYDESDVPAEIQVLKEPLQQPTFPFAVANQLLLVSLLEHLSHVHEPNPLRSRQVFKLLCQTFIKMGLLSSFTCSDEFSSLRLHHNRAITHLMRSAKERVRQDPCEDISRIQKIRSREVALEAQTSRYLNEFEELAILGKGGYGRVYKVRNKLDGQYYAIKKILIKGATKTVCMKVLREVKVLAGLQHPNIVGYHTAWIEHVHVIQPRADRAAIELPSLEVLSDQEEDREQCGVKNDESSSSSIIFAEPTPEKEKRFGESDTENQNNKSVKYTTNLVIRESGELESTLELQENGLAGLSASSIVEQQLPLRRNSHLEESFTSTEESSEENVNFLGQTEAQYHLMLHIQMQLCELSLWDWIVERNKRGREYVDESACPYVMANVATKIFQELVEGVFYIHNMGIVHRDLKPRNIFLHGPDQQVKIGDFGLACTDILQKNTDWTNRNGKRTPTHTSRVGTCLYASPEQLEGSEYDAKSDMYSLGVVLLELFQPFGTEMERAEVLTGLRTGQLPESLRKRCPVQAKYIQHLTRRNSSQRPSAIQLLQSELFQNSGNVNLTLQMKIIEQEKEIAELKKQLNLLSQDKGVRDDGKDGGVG
Tribbles homolog 2 (Homo sapiens), sequence (Q92519 whole entry): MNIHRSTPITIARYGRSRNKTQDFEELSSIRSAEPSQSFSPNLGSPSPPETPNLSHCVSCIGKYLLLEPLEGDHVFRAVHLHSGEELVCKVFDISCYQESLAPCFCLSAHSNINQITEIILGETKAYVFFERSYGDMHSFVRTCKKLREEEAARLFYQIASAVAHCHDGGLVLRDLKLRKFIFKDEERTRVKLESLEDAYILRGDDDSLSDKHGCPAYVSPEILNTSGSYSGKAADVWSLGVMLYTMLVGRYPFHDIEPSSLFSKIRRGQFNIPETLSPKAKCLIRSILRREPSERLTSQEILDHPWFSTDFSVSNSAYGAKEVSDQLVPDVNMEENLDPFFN
Dual specificity mitogen-activated protein kinase kinase 2 (Homo sapiens), sequence (P36507 whole entry): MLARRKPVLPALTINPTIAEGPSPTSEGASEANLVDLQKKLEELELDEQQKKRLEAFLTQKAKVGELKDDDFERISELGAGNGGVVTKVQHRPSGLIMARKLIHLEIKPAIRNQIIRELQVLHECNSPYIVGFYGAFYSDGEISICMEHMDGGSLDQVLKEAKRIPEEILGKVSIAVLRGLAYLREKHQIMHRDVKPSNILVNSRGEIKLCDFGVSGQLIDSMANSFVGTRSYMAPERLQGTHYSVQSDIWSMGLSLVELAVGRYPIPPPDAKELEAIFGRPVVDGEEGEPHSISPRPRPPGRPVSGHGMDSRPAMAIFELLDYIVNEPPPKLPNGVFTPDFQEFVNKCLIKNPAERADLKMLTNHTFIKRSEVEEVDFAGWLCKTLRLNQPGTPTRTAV

CC[C@@H](Nc1c(C#N)c(-c2ccc(-c3cccc(C)c3F)cc2)nc2cnccc12)C(=O)O [BAY-091]
< 5: pKi [13]
inactive: inhibition [1] -9.98% | inhibition [2] 2.76% | inhibition [3] 1% | inhibition [4] -6.26% | inhibition [5] 7.74% | inhibition [6] 5.28% | inhibition [7] -0.05% | inhibition [8] 9.92% | inhibition [9] 19% | inhibition [10] 5.05% | inhibition [11] 0.32% | inhibition [12] 10.5% | inhibition [14] 5.17% | inhibition [15] 5.85% | inhibition [16] 6.77% | inhibition [17] 8.65% | inhibition [18] -6.17% | inhibition [19] 9.2% | inhibition [20] 0% | inhibition [21] 24% | inhibition [22] 1.92% | inhibition [23] 5.46% | inhibition [24] 4.71% | inhibition [25] -2% | inhibition [26] -9.56% | inhibition [27] 0.09% | inhibition [28] 5.6% | inhibition [29] 12.3% | inhibition [30] -3.58% | inhibition [31] 19.1% | inhibition [32] -2.9% | inhibition [33] 1.03% | inhibition [34] 0.49% | inhibition [35] 35.8% | inhibition [36] 6.94% | inhibition [37] -5.61% | inhibition [38] 11.3% | inhibition [39] 29.5% | inhibition [40] 12.8% | inhibition [41] 8.31% | inhibition [42] 6% | inhibition [43] 3.31% | inhibition [44] 18.1% | inhibition [45] 13.9%
> 10 µM: Ki [13]
